Test system: Carbonic Anhydrase (CA)
Assay: Surface plasmon resonance binding of compound to biotinylated CA-immobilized substrate
Conditions: for Binding signal (binding observed or not) / Amount of 100 nM Hydrochlorothiazide bound: 100 nM in 1×PBS (pH 7.4); for Binding signal (binding observed or not): all the substrates; for Binding activity / Mean binding activity: 100 nM; for Binding activity: one-to-one binding assumed, molecular weight conversion; for Mean binding activity: mean of the three substrates (7450, 3400, 1600 RV CA)

| Compound | Binding signal (binding observed or not) | Amount of 100 nM Hydrochlorothiazide bound (amount of CA immobilized 1600 RV, Comparative example (without calibration)) [RV] | Amount of 100 nM Hydrochlorothiazide bound (amount of CA immobilized 1600 RV, Example (with calibration of baseline, third curve approximation)) [RV] | Amount of 100 nM Hydrochlorothiazide bound (amount of CA immobilized 3400 RV, Example (with calibration of baseline, third curve approximation)) [RV] | Amount of 100 nM Hydrochlorothiazide bound (amount of CA immobilized 7450 RV, Comparative example (without calibration)) [RV] | Amount of 100 nM Hydrochlorothiazide bound (amount of CA immobilized 7450 RV, Example (with calibration of baseline, third curve approximation)) [RV] | Binding activity (CA immobilized 1600 RV, with calibration) [%] | Binding activity (CA immobilized 1600 RV, without calibration) [%] | Binding activity (CA immobilized 3400 RV, with calibration) [%] | Binding activity (CA immobilized 3400 RV, without calibration) [%] | Binding activity (CA immobilized 7450 RV, with calibration) [%] | Binding activity (CA immobilized 7450 RV, without calibration) [%] | Mean binding activity (with calibration) [%] | Mean binding activity (without calibration) [%] |
| --- | --- | --- | --- | --- | --- | --- | --- | --- | --- | --- | --- | --- | --- | --- |
| NS(=O)(=O)c1cc2c(cc1Cl)NCNS2(=O)=O [Hydrochlorothiazide] | binding signal was observed | 7.1 | 7.3 | 16.3 | 25.4 | 31.7 | 45.9 | 44.7 | 48.2 | 40.6 | 42.8 | 34.4 | 45.6 | 39.9 |
| O=C(O)c1cccnc1 [Nicotinic acid] | no binding was observed | – | – | – | – | – | – | – | – | – | – | – | – | – |
